Earlier results in PubChem BioAssay AID1259409 (Chemical Carcinogenesis Research Information System (CCRIS), 2018).

Tested on: rodent chemically induced tumor inhibition, incidence and multiplicity
Experiment: CCRIS tumor inhibitor studies
Excerpt: The CCRIS database contains chemical records with carcinogenicity, mutagenicity, tumor promotion, and tumor inhibition test results. It was developed by the National Cancer Institute (NCI). Data are derived from studies cited in primary journals, current awareness tools, NCI reports, and other sources. Test results have been reviewed by experts in carcinogenesis and mutagenesis.
CCRIS provides historical information from the years 1985 - 2011. It is no longer updated.
This is an archive assay for CCRIS tumor inhibitor studies.

## O=C(O[C@@H]1Cc2c(O)cc(O)cc2O[C@@H]1c1cc(O)c(O)c(O)c1)c1cc(O)c(O)c(O)c1
Carcinogen: 4-(METHYLNITROSAMINO)-1-(3-PYRIDYL)-1-BUTANONE, 64091-91-4, Dose [Inhibitor]: 0, 560 PPM IN DRINKING WATER FOR 13 WK BEGINNING 2 WK PRIOR TO CARCINOGEN TREATMENT (STUDY DURATION: 18 WK), Route [Inhibitor]: ORAL, Species: MOUSE, Strain/Sex: STRAIN-A/FEMALE, Target Tissue: Type of Lesion: LUNG: ADENOMA, Dose [Carcinogen]: 11.65 MG/KG 3/WK FOR 10 WK, Promoter: NONE USED
  tumour outcome (control, treated, inhibition, significance): 100%, 100%, 0%, not significant
Carcinogen: 4-NITROQUINOLINE-N-OXIDE (56-57-5), Dose [Inhibitor]: 0.05% IN DIET FOR 25 WKS (STUDY DURATION: 25 WKS), Route [Inhibitor]: DIET, Species: MOUSE, Strain/Sex: DDY/MALE (10,10)/(10,?), Target Tissue: Type of Lesion: LUNG, Dose [Carcinogen]: 10 MG/KG BW ONCE, Promoter: CACODYLIC ACID (75-60-5)
  tumour outcome (control, treated, inhibition, significance): 100%, 70%, 30%, not calculated
Carcinogen: 7,12-DIMETHYLBENZ[A]ANTHRACENE, 57-97-6, Dose [Inhibitor]: 0, 0.5% (81% EGCG) IN DIET OF RATS WITH TUMORS AT 13 WK POST CARCINOGEN DOSE (STUDY DURATION: 36 WK), Route [Inhibitor]: ORAL, Species: RAT, Strain/Sex: SPRAGUE-DAWLEY/FEMALE, Target Tissue: Type of Lesion: MAMMARY GLAND: CARCINOMA, Dose [Carcinogen]: 50 MG/KG BW ONCE, Promoter: NONE USED
  tumour outcome (control, treated, inhibition, significance): 14/14 (100%), 14/14 (100%), 0%, not significant
Carcinogen: 7,12-DIMETHYLBENZ[A]ANTHRACENE, 57-97-6, Dose [Inhibitor]: 0, 0.5% (81% EGCG) IN DIET OF RATS WITHOUT TUMORS AT 13 WK POST CARCINOGEN DOSE (STUDY DURATION: 36 WK), Route [Inhibitor]: ORAL, Species: RAT, Strain/Sex: SPRAGUE-DAWLEY/FEMALE, Target Tissue: Type of Lesion: MAMMARY GLAND: CARCINOMA, Dose [Carcinogen]: 50 MG/KG BW ONCE, Promoter: NONE USED
  tumour outcome (control, treated, inhibition, significance): 11/14 (79%), 12/14 (86%), -9%, not significant
Carcinogen: 7,12-DIMETHYLBENZ[A]ANTHRACENE, 57-97-6, Dose [Inhibitor]: 0, 0.5% POLYPHEN E (58.4% EGCG) IN DIET OF RATS WITH TUMORS AT 13 WK POST CARCINOGEN DOSE (STUDY DURATION: 36 WK), Route [Inhibitor]: ORAL, Species: RAT, Strain/Sex: SPRAGUE-DAWLEY/FEMALE, Target Tissue: Type of Lesion: MAMMARY GLAND: CARCINOMA, Dose [Carcinogen]: 50 MG/KG BW ONCE, Promoter: NONE USED
  tumour outcome (control, treated, inhibition, significance): 14/14 (100%), 14/14 (100%), 0%, not significant
Carcinogen: 7,12-DIMETHYLBENZ[A]ANTHRACENE, 57-97-6, Dose [Inhibitor]: 0, 5 UMOL IN 0.2 ML ACETONE 1/D FOR 7 D PRIOR TO CARCINOGEN DOSE (STUDY DURATION: 16 WK), Route [Inhibitor]: DERMAL, Species: MOUSE, Strain/Sex: SENCAR/FEMALE, Target Tissue: Type of Lesion: SKIN: TUMOR, Dose [Carcinogen]: 10 NMOL IN 0.2 ML ACETONE ONCE, Promoter: 12-O-TETRADECANOYLPHORBOL-13-ACETATE, 16561-29-8
  tumour outcome (control, treated, inhibition, significance): 100%, 100%, 0%, not significant
Carcinogen: N-ETHYL-N'-NITRO-N-NITROSGUANIDINE, 4245-77-6, Dose [Inhibitor]: 0, 0.005% IN DIET FOR 12 WK BEGINNING POST CARCINOGEN TREATMENT (STUDY DURATION: 16 WK), Route [Inhibitor]: ORAL, Species: MOUSE, Strain/Sex: C57BL/MALE, Target Tissue: Type of Lesion: DUODENUM: TUMOR, Dose [Carcinogen]: 100 MG/L IN DRINKING WATER FOR 4 WK, Promoter: NONE USED
  tumour outcome (control, treated, inhibition, significance): 63%, 20%, 68%, p<0.001
Carcinogen: N-ETHYL-N'-NITRO-N-NITROSOGUANIDINE, 4245-77-6, Dose [Inhibitor]: 0, 0.005% IN DIET FOR 12 WK BEGINNING POST CARCINOGEN TREATMENT (STUDY DURATION: 16 WK), Route [Inhibitor]: ORAL, Species: MOUSE, Strain/Sex: C57BL/MALE, Target Tissue: Type of Lesion: DUODENUM: TUMOR, Dose [Carcinogen]: 100 MG/L IN DRINKING WATER FOR 4 WK, Promoter: NONE USED
  tumour outcome (control, treated, inhibition, significance): 63%, 20%, 68%, p<0.001
Carcinogen: N-ETHYL-N'-NITRO-N-NITROSOGUANIDINE, 4245-77-6, Dose [Inhibitor]: 0.005% (0.15 MG/MOUSE/D) IN DRINKING WATER FOR 12 WK POST CARCINOGEN DOSE (STUDY DURATION: 16 WK), Route [Inhibitor]: ORAL, Species: MOUSE, Strain/Sex: C57BL/MALE, Target Tissue: Type of Lesion: DUODENUM: TUMOR, Dose [Carcinogen]: 100 MG/L DRINKING WATER FOR 4 WK, Promoter: NONE USED
  tumour outcome (control, treated, inhibition, significance): 10/16 (63%), 3/15 (20%), 68%, p<0.001
Carcinogen: N-METHYL-N'-NITRO-N-NITROSOGUANIDINE, 70-25-7, Dose [Inhibitor]: 0, 0.05% IN DIET FOR 16 WK BEGINNING POST CARCINOGEN TREATMENT (STUDY DURATION: 44 WK), Route [Inhibitor]: ORAL, Species: RAT, Strain/Sex: WISTAR/MALE, Target Tissue: Type of Lesion: STOMACH: TUMOR, Dose [Carcinogen]: 80 MG/L IN DRINKING WATER FOR 28 WK, Promoter: NONE USED
  tumour outcome (control, treated, inhibition, significance): 62%, 31%, 50%, p<0.05
Carcinogen: N-METHYL-N'-NITRO-N-NITROSOGUANIDINE, 70-25-7, Dose [Inhibitor]: 0, 0.05% IN DRINKING WATER FOR 15 WK (STUDY DURATION: 44 WK), Route [Inhibitor]: ORAL, Species: RAT, Strain/Sex: WISTAR/MALE, Target Tissue: Type of Lesion: GLANDULAR STOMACH: TUMOR, Dose [Carcinogen]: 80 MG/L IN DRINKING WATER FOR 28 WK, Promoter: NONE USED
  tumour outcome (control, treated, inhibition, significance): 21/34 (62%), 11/35 (31%), 50%, p<0.05
Carcinogen: N-METHYL-N'-NITRO-N-NITROSOGUANIDINE, 70-25-7, Dose [Inhibitor]: 0, 0.05% IN DRINKING WATER FOR 15 WK BEGINNING POST CARCINOGEN TREATMENT (STUDY DURATION: 44 WK), Route [Inhibitor]: ORAL, Species: RAT, Strain/Sex: WISTAR/MALE, Target Tissue: Type of Lesion: GLANDULAR STOMACH: TUMOR, Dose [Carcinogen]: 80 MG/L IN DRINKING WATER FOR 28 WK, Promoter: NONE USED
  tumour outcome (control, treated, inhibition, significance): 21/34 (62%), 11/35 (31%), 50%, p<0.05
Carcinogen: NONE USED, Dose [Inhibitor]: 0, 0.05% IN DRINKING WATER AD LIBITUM FOR 58 WK (STUDY DURATION: 65 WK), Route [Inhibitor]: ORAL, Species: MOUSE, Strain/Sex: C3H/HENCRJ/MALE, Target Tissue: Type of Lesion: LIVER: HEPATOMA, Promoter: NONE USED
  tumour outcome (control, treated, inhibition, significance): 15/18 (83%), 14/25 (56%), 33%, p<0.05
Carcinogen: NONE USED, Dose [Inhibitor]: 0, 0.1% IN DRINKING WATER AD LIBITUM FOR 58 WK (STUDY DURATION: 65 WK), Route [Inhibitor]: ORAL, Species: MOUSE, Strain/Sex: C3H/HENCRJ/MALE, Target Tissue: Type of Lesion: LIVER: HEPATOMA, Promoter: NONE USED
  tumour outcome (control, treated, inhibition, significance): 15/18 (83%), 12/23 (52%), 37%, p<0.05

## O=C(CCC(O)c1ccccc1)c1ccccc1 (configuration not stated)
Carcinogen: 4-(METHYLNITROSAMINO)-1-(3-PYRIDYL)-1-BUTANONE, 64091-91-4, Dose [Inhibitor]: 0, 25 UMOL IN 0.1 ML CORN OIL ONCE 2 HR PRIOR TO CARCINOGEN DOSE (STUDY DURATION: 16 WK), Route [Inhibitor]: GAVAGE, Species: MOUSE, Strain/Sex: STRAIN-A/FEMALE, Target Tissue: Type of Lesion: LUNG: TUMOR, Dose [Carcinogen]: 10 UMOL IN 0.1 ML SALINE ONCE, Promoter: NONE USED
  tumour outcome (control, treated, inhibition, significance): 100%, 100%, 0%, not significant

## Cn1c(=O)[nH]c(=O)c2[nH]cnc21
Carcinogen: URETHANE, 51-79-6, Dose [Inhibitor]: 0.05 UMOL/G BW GIVEN AT 6 HR INTERVALS DURING THE PERIOD OF 0 TO 36 HR AFTER CARCINOGEN TREATMENT FOLLOWED BY 5 MO OBSER, Route [Inhibitor]: INTRAPERITONEAL, Species: MOUSE, Strain/Sex: ICR/FEMALE, Target Tissue: Type of Lesion: LUNG: PAPILLARY ADENOMA, Dose [Carcinogen]: 0.1 MG/G BW ONCE, Promoter: NONE USED
  tumour outcome (control, treated, inhibition, significance): 31/59 (53%), 26/44 (59%), -11%, not significant
Carcinogen: URETHANE, 51-79-6, Dose [Inhibitor]: 0.25 UMOL/G BW 1/D DURING THE PERIOD OF 5 TO 9 D AFTER CARCINOGEN TREATMENT FOLLOWED BY OBSERVATION PERIOD UNTIL END OF, Route [Inhibitor]: INTRAPERITONEAL, Species: MOUSE, Strain/Sex: ICR/FEMALE, Target Tissue: Type of Lesion: LUNG: PAPILLARY ADENOMA, Dose [Carcinogen]: 1 MG/G BW ONCE, Promoter: NONE USED
  tumour outcome (control, treated, inhibition, significance): 49/53 (93%), 50/53 (94%), -1%, not significant
